Measurements taken from PMC11151938 (Nature, 2024).

Key:
RIPK3 [1] = target: T1, RIPK3 (Homo sapiens, UniProt Q9Y572); assay: In vitro RIPK3 kinase assay; format: biochemical
necroptosis in cells = assay: Necroptosis blockade in cells; format: cell-based; details: read-out: blocking necroptosis in cells IC50
RIPK3 [2] = details: cited from earlier work
RIPK3 [3] = target: T1, RIPK3; details: cited from earlier work
Ripk3−/− MEFs = assay: RIPK1 kinase-driven cell death in Ripk3−/− MEFs; format: cell-based, mouse; details: TNFα + TAK1 inhibitor
[4] = tested on: panel of 90 non-mutant human kinases; details: FDA-approved TKIs, comparison values; cited from earlier work
influenza = details: mice and humans ref 36, 37; cited from earlier work
[5] = tested on: primary MEFs infected with PR8; assay: IAV-induced necroptosis in primary MEFs; format: cell-based, mouse; details: PR8 MOI 2, zVAD 50 μM

T1 sequence (Q9Y572 1-313): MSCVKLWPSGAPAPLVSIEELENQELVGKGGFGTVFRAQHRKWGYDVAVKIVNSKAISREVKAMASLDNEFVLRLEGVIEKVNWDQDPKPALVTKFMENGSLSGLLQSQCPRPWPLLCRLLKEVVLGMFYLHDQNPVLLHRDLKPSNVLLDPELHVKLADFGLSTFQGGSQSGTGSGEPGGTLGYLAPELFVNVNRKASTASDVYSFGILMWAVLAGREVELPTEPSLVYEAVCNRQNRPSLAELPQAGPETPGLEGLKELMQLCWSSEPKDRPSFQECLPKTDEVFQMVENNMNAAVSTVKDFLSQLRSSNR

For `CCN(CC)CCOc1ccc(Nc2ncc3cc(-c4c(Cl)cccc4Cl)c(=O)n(C)c3n2)cc1` [PD166285], which IC50 (RIPK3 [1]) is on record?
Its IC50 is 1080 nM.

And the IC50 (necroptosis in cells)?
The IC50 was 2880 nM.

Which activity in cells (RIPK3 [2]) does the source give for `CNC(=O)c1ccc2c(c1)ncn2-c1ccc(CC(=O)OC(C)(C)C)cc1` [GSK’840] here?
The activity in cells was “unexpectedly modest activity”.

What about the “activity against recombinant RIPK3 in vitro” value (RIPK3 [3]) of the same molecule?
Its value is “potent activity”.

Which results are given for `Cc1cc(-c2cnc(N)c3c(-c4ccc5scnc5c4)csc23)n(C)n1` [GSK’843]?
activity in cells (RIPK3 [2]): unexpectedly modest activity; activity against recombinant RIPK3 in vitro (RIPK3 [3]): potent activity

For `N#Cc1cc(N2CCC(C(=O)N3N=CC[C@H]3c3cc(F)cc(F)c3)CC2)ncn1` [GSK’547], which “activity against RIPK1 kinase-driven cell death” value (Ripk3−/− MEFs) is on record?
Its value is “able to block such death”.

With `CNC(=O)c1cc(Oc2ccc(NC(=O)Nc3ccc(Cl)c(C(F)(F)F)c3)cc2)ccn1` [Sorafenib] as the molecule, how does the “S(35) selectivity score” value [4] read?
The value was 0.22.

For `CCOC(=O)C1=C[C@@H](OC(CC)CC)[C@H](NC(C)=O)[C@@H](N)C1` [oseltamivir], which “time of administration after infection beyond which therapeutic benefit is lost” value (influenza) is on record?
Its value is “more than 48 h”.

For `CC(C)S(=O)(=O)c1ccc2nccc(Nc3ccc4scnc4c3)c2c1` [GSK’872], which activity in cells (RIPK3 [2]) is on record?
The activity in cells was “unexpectedly modest activity”.

With `Cc1nc(Nc2ncc(C(=O)Nc3c(C)cccc3Cl)s2)cc(N2CCN(CCO)CC2)n1` [Dasatinib] as the molecule, how does the “S(35) selectivity score” value [4] read?
The value was 0.28.

For `CCCS(=O)(=O)Nc1cc(-c2cc(-c3ccc(N4CCNCC4)cc3)cnc2N)cc(F)c1OC` [CSLP37], which IAV-triggered necroptosis [5] is on record?
Its IAV-triggered necroptosis is “neither the ABL inhibitor imatinib (Gleevec) nor the selective RIPK2 inhibitor CSLP37[32] blocked IAV-triggered necroptosis”.

For `Cc1ccc(NC(=O)c2ccc(CN3CCN(C)CC3)cc2)cc1Nc1nccc(-c2cccnc2)n1` [imatinib], which IAV-triggered necroptosis [5] is on record?
Its IAV-triggered necroptosis is “neither the ABL inhibitor imatinib (Gleevec) nor the selective RIPK2 inhibitor CSLP37[32] blocked IAV-triggered necroptosis”.
